“Also recorded” adds a separate entry of the source.
What was measured:
[1] = system: TNF sensitive mouse fibroblast L-929 cell line; assay: TNF-α mediated cytotoxicity on TNF-sensitive L-929 fibroblast cell line (MTT assay); assay type: cell-based
Method: FIG. 7: Effect of berberine on TNF-α mediated cytotoxicity on TNF sensitive mouse fibroblast L-929 cell line.
Effect of Berberine on TNF-α mediated cytotoxicity was evaluated using TNF-sensitive L-929 fibroblast cell line. L-929 cells were plated at a concentration of 5×10^4 cells/well in a 96-well flat bottom plate in a volume of 100 μl. The cells were incubated at 37° C. for 16-18 hrs. Different concentrations of TNF-α, with and without different doses of berberine, were added to the cultures. The cells were then incubated for additional 15 hrs and cytotoxity was measured by MTT assay.

[2] = system: attachment of neutrophils to endothelial lining of the glomerular capillaries; assay: Neutrophil attachment to endothelial lining in kidney of endotoxin-challenged mice (electron microscopy); assay type: in vivo, BALB/C mice
Method: FIG. 1: Electron micrograph of kidney from a mouse challenged with endotoxin (LPS: 500 ug)) showing attachment of neutrophils with endothelial cells of glomerular capillary. Degenerative changes in surrounding tissue are shown.
FIG. 2: Electron micrograph of kidney from a mouse treated with a dose of berberine of 10 mg/kg followed 24 hours later by endotoxin (LPS 500 ug).
BALB/C mice were treated with berberine (1, 5, 10 or 20 ug/kg body weight) intraperitoneally and challenged 24 hours later with lethal dose of endotoxin. Kidneys were removed after 3, 6 and 12 hours after endotoxin challenge and the tissue samples was fixed and processed for electron microscopy.

[3] = system: ICAM-1; assay: ICAM-1 expression on vascular endothelium of LPS-challenged mice (immunocytochemical localization); assay type: in vivo, BALB/C mice; details: berberine intraperitoneally 24 hours before 500 ug LPS; sacrificed 6 hours after LPS
Method: FIG. 3: Photomicrograph of liver from mice challenged with endotoxin (LPS 500 ug). […] (Immunocytochemical localization using anti-ICAM-1 antibody on frozen tissue).
FIG. 4: Photomicrograph of liver from mice treated with berberine (10 ug/kg) followed 24 hours later by endotoxin (LPS 500 ug). […] (Immunocytochemical localization using anti-ICAM-1 antibody frozen tissue).
BALB/C mice were treated with berberine (1, 5, 10 or 20 ug/kg body weight) intraperitoneally and challenged 24 hours later with 500 ug of endotoxin (lipopolysaccharide: LPS); controls without berberine treatment were also given LPS challenge. Animals were sacrificed 6 hours after the LPS challenge and various organs (liver, kidney, lungs) were removed and immediately frozen in liquid nitrogen. Frozen section of these organs were subjected to immunocytochemical localization for ICAM 1 antibodies.

[4] = system: ICAM-1 on endothelial cell line (send. 1); assay: TNF-α induced ICAM-1 expression on endothelial cell line (send. 1), flowcytometric analysis; assay type: cell-based
From the text: FIG. 5: Effect of berberine pretreatment on expression of TNF-α induced ICAM-1 expression on endothelial cell line (send. 1), in vitro. […] (Flowcytometric analysis using anti-ICAM 1 antibody—FITC conjugate). The black line represents background level of ICAM expression, the red line represents induced level of ICAM following TNF stimulation and the green line represents TNF-α induced ICAM-1 expression after treatment for different duration.
FIG. 6: Effect of berberine pretreatment (dose response) on expression of TNF-α induced ICAM-1 expression on endothelial cell line (send. 1), in vitro. […] (Flowcytometric analysis using anti-ICAM 1 antibody—FITC conjugate). The black line represents background level of ICAM-1 expression, the red line represents induced level of ICAM following TNF stimulation and the green line represents the TNF-α induced ICAM induced ICAM expression after treatment with different doses of berberine.
Shifting of this curve to the left indicates the lower amount of expression of ICAM-1.
Effect of berberine for various duration ranging from 1, 6, 12 and 24 hours on the expression of ICAM-1 on the endothelial cell line (send. 1) in response to a combination of recombinant TNF-α and IFN-γ was analyzed using flowcytometer after staining with FITC labeled anti-CD 54 (ICAM-1) antibody.

[5] = system: B cells, T cells; details: cited from earlier work

COc1ccc2cc3[n+](cc2c1OC)CCc1cc2c(cc1-3)OCO2 [berberine]
TNF mediated cytotoxity ([1]; berberine 100 μg/ml, TNF 100 pg/ml alone showed 66% cytotoxity, 15 hrs incubation): 27%
protection against TNF mediated killing ([1]; different doses of berberine with TNF-α, 15 hrs): dose dependent inhibition of cytotoxic effect; also recorded: dose dependent protection
glomerular morphology / surrounding tissue ([2]; berberine dose of 10-20 mg/kg, endotoxin challenge 24 hours later): surrounding tissue appears normal; also recorded: glomerular morphology was normal
attachment of neutrophils to endothelial lining of glomerular capillaries ([2]; berberine intraperitoneally 24 hours before lethal endotoxin (LPS 500 ug), kidneys 3, 6 and 12 hours after challenge): appear free without attachment to endothelial lining; also recorded: remarkably inhibited the attachment of neutrophils to endothelial lining of the glomerular capillaries
expression of ICAM-1 on vascular endothelium (liver, kidney, lungs) [3]: lack of expression of ICAM-1 on vascular endothelium; also recorded: inhibited expression of ICAM 1 on the endothelial lining of all organs
maximum inhibition of ICAM-1 expression ([4]; 24 hours of treatment at 100 μg/ml): 24 hour pretreatment shows the maximum inhibition of ICAM-1 expression and Treatment with 100 ug/ml berberine shows the maximum inhibition of ICAM-1 expression and maximum inhibition was seen at 24 hours of treatment at 100 μg/ml
dose dependence of inhibition of ICAM-1 expression ([4]; dose response, FIG. 6): dose dependent
inhibition of ICAM-1 expression on endothelial cells ([4]; recombinant TNF-α and IFN-γ stimulation, as early as 6 hours of treatment): inhibited the expression of ICAM-1 on endothelial cells
antibody production by B cells [5]: inhibits antibody production by B cells
propagation of T cells [5]: no effect on propagation of T cells

From patent US6395772B1, “Method for blocking endothelial cell-leukocyte attachment by inhibiting expression of adhesion molecules on the vascular endothelium for therapeutic applications” (National Institute of Immunology, priority 1996, dated 2002)
